# Source: US12539292B2, “BRM targeting compounds and associated methods of use” (Arvinas Operations, Inc., priority 2018, dated 2026)
# Target: T1, BRM (Homo sapiens, UniProt P51531)
# T1 construct: In-Cell Western Screen of BRM Degradation in SW1573 Cells; endogenous in cells; host or cells: SW1573
# Experiment: In-cell Western screen of BRM degradation in SW1573 cells (Dmax and DC50)
# Assay type: cell-based
# Conditions: BRM degradation, SW1573 cells; for DC50: read-out: DC50; for Dmax: tested at the top concentration of between 0.3 and 10 μM, read-out: Dmax (%) (% degraded)
# Method in brief: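 BRM levels were read by LI-COR in-cell Western after two-channel (800/680 nm) immunostaining of fixed, Triton-permeabilised SW1573 cells.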
# T1 sequence (P51531 whole entry): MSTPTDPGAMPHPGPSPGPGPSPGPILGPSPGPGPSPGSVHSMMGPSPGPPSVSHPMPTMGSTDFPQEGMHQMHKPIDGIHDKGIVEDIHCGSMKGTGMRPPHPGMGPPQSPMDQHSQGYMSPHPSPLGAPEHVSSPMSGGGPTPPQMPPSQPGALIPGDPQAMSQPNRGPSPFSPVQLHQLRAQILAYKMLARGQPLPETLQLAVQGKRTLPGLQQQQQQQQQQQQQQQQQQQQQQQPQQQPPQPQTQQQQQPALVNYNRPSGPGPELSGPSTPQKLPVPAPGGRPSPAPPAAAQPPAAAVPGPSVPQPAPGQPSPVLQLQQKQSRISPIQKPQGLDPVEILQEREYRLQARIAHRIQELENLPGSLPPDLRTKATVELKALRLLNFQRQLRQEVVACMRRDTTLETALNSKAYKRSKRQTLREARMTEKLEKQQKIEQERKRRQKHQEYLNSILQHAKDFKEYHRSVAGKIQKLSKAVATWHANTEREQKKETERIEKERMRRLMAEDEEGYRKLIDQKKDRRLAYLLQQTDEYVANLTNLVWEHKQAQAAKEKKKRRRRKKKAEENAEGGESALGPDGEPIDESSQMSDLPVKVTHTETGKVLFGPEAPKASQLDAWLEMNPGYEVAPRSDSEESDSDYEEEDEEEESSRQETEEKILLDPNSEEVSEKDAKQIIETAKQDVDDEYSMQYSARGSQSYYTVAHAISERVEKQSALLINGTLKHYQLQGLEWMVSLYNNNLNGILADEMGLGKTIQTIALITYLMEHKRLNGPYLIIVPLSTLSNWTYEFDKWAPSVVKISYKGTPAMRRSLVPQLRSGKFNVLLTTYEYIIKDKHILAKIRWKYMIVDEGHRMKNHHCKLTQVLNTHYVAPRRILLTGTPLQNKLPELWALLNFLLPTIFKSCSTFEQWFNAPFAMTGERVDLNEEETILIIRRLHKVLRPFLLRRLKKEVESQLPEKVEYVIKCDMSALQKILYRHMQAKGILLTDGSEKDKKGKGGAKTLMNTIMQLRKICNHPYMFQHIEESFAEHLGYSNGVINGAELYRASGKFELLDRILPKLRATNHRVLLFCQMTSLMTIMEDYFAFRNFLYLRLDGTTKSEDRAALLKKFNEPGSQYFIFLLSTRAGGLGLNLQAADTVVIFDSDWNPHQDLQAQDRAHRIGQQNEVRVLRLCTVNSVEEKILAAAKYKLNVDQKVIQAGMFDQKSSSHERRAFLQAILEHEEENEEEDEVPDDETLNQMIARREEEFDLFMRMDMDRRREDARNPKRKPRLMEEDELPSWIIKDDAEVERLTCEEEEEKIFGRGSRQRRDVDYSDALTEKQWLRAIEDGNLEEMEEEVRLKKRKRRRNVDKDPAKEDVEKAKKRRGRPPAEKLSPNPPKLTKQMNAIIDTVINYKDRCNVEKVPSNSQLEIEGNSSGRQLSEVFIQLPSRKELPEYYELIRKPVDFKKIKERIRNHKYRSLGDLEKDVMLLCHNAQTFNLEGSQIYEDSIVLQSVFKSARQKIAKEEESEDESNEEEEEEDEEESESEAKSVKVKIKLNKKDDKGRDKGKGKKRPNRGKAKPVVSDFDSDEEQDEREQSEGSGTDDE
Structure (SMILES),DC50,Dmax
"Cc1cnnn1-c1ccc([C@H](C)NC(=O)[C@@H]2C[C@@H](O)CN2C(=O)[C@@H](c2cc(OCCN3CCN(CCOc4cc(N5C6CCC5CN(c5cc(-c7ccccc7O)nnc5N)C6)ccn4)CC3)no2)C(C)C)cc1 [compound 275, (2S,4R)-1-((2R)-2-(3-(2-(4-(2-((4-(3-(3-amino-6-(2-hydroxyphenyl)pyridazin-4-yl)-3,8-diazabicyclo[3.2.1]octan-8-yl)pyridin-2-yl)oxy)ethyl)piperazin-1-yl)ethoxy)isoxazol-5-yl)-3-methylbutanoyl)-4-hydroxy-N-((S)-1-(4-(5-methyl-1H-1,2,3-triazol-1-yl)phenyl)ethyl)pyrrolidine-2-carboxamide]",10 to 30 nM,> 75%
"Cc1nccn1-c1ccc([C@H](C)NC(=O)[C@@H]2C[C@@H](O)CN2C(=O)[C@H](c2cc(OC/C=C/c3ccc(O[C@H]4C[C@H](Oc5cc(N6C7CCC6CN(c6cc(-c8ccccc8O)nnc6N)C7)ccn5)C4)cn3)no2)C(C)C)cc1 [compound 276, (2S,4R)-1-((2S)-2-(3-(((E)-3-(5-((1r,3S)-3-((4-(3-(3-amino-6-(2-hydroxyphenyl)pyridazin-4-yl)-3,8-diazabicyclo[3.2.1]octan-8-yl)pyridin-2-yl)oxy)cyclobutoxy)pyridin-2-yl)allyl)oxy)isoxazol-5-yl)-3-methylbutanoyl)-4-hydroxy-N-((S)-1-(4-(2-methyl-1H-imidazol-1-yl)phenyl)ethyl)pyrrolidine-2-carboxamide]",> 30 nM,–
"Cc1nccn1-c1ccc([C@H](C)NC(=O)[C@@H]2C[C@@H](O)CN2C(=O)[C@@H](c2cc(OC/C=C/c3ccc(O[C@H]4C[C@H](Oc5cc(N6C7CCC6CN(c6cc(-c8ccccc8O)nnc6N)C7)ccn5)C4)cn3)no2)C(C)C)cc1 [compound 277, (2S,4R)-1-((2R)-2-(3-(((E)-3-(5-((1r,3R)-3-((4-(3-(3-amino-6-(2-hydroxyphenyl)pyridazin-4-yl)-3,8-diazabicyclo[3.2.1]octan-8-yl)pyridin-2-yl)oxy)cyclobutoxy)pyridin-2-yl)allyl)oxy)isoxazol-5-yl)-3-methylbutanoyl)-4-hydroxy-N-((S)-1-(4-(2-methyl-1H-imidazol-1-yl)phenyl)ethyl)pyrrolidine-2-carboxamide]",< 2.5 nM,> 75%
"COc1nc(-c2scnc2C)ccc1[C@H](C)NC(=O)[C@@H]1C[C@@H](O)CN1C(=O)[C@H](c1cc(OCCN2CCC(O[C@H]3C[C@H](Oc4cc(N5C6CCC5CN(c5cc(-c7ccccc7O)nnc5N)C6)ccn4)C3)CC2)no1)C(C)C [compound 278, (2S,4R)-1-((2S)-2-(3-(2-(4-((1r,3S)-3-((4-(3-(3-amino-6-(2-hydroxyphenyl)pyridazin-4-yl)-3,8-diazabicyclo[3.2.1]octan-8-yl)pyridin-2-yl)oxy)cyclobutoxy)piperidin-1-yl)ethoxy)isoxazol-5-yl)-3-methylbutanoyl)-4-hydroxy-N-((S)-1-(2-methoxy-6-(4-methylthiazol-5-yl)pyridin-3-yl)ethyl)pyrrolidine-2-carboxamide]",> 30 nM,–
"COc1nc(-c2scnc2C)ccc1[C@H](C)NC(=O)[C@@H]1C[C@@H](O)CN1C(=O)[C@@H](c1cc(OCCN2CCC(O[C@H]3C[C@H](Oc4cc(N5C6CCC5CN(c5cc(-c7ccccc7O)nnc5N)C6)ccn4)C3)CC2)no1)C(C)C [compound 279, (2S,4R)-1-((2R)-2-(3-(2-(4-((1r,3R)-3-((4-(3-(3-amino-6-(2-hydroxyphenyl)pyridazin-4-yl)-3,8-diazabicyclo[3.2.1]octan-8-yl)pyridin-2-yl)oxy)cyclobutoxy)piperidin-1-yl)ethoxy)isoxazol-5-yl)-3-methylbutanoyl)-4-hydroxy-N-((S)-1-(2-methoxy-6-(4-methylthiazol-5-yl)pyridin-3-yl)ethyl)pyrrolidine-2-carboxamide]",< 2.5 nM,> 75%
"Cc1ncsc1-c1ccc([C@H](CN(C)C)NC(=O)[C@@H]2C[C@@H](O)CN2C(=O)[C@H](c2cc(OCCN3CCN(CCOc4cc(N5C6CCC5CN(c5cc(-c7ccccc7O)nnc5N)C6)ccn4)CC3)no2)C(C)C)cc1 [compound 280, (2S,4R)-1-((2S)-2-(3-(2-(4-(2-((4-(3-(3-amino-6-(2-hydroxyphenyl)pyridazin-4-yl)-3,8-diazabicyclo[3.2.1]octan-8-yl)pyridin-2-yl)oxy)ethyl)piperazin-1-yl)ethoxy)isoxazol-5-yl)-3-methylbutanoyl)-N-((R)-2-(dimethylamino)-1-(4-(4-methylthiazol-5-yl)phenyl)ethyl)-4-hydroxypyrrolidine-2-carboxamide]",> 30 nM,–
"Cc1ncsc1-c1ccc([C@H](CN(C)C)NC(=O)[C@@H]2C[C@@H](O)CN2C(=O)[C@@H](c2cc(OCCN3CCN(CCOc4cc(N5C6CCC5CN(c5cc(-c7ccccc7O)nnc5N)C6)ccn4)CC3)no2)C(C)C)cc1 [compound 281, (2S,4R)-1-((2R)-2-(3-(2-(4-(2-((4-(3-(3-amino-6-(2-hydroxyphenyl)pyridazin-4-yl)-3,8-diazabicyclo[3.2.1]octan-8-yl)pyridin-2-yl)oxy)ethyl)piperazin-1-yl)ethoxy)isoxazol-5-yl)-3-methylbutanoyl)-N-((R)-2-(dimethylamino)-1-(4-(4-methylthiazol-5-yl)phenyl)ethyl)-4-hydroxypyrrolidine-2-carboxamide]",< 2.5 nM,> 75%
"CC(C)[C@@H](C(=O)N1C[C@H](O)C[C@H]1C(=O)N[C@@H](C)c1ccc(-c2c(Cl)cnn2C)cc1)c1cc(OCCN2CCN(CCOc3cc(N4C5CCC4CN(c4cc(-c6ccccc6O)nnc4N)C5)ccn3)CC2)no1 [compound 283, (2S,4R)-1-((2R)-2-(3-(2-(4-(2-((4-(3-(3-amino-6-(2-hydroxyphenyl)pyridazin-4-yl)-3,8-diazabicyclo[3.2.1]octan-8-yl)pyridin-2-yl)oxy)ethyl)piperazin-1-yl)ethoxy)isoxazol-5-yl)-3-methylbutanoyl)-N-((S)-1-(4-(4-chloro-1-methyl-1H-pyrazol-5-yl)phenyl)ethyl)-4-hydroxypyrrolidine-2-carboxamide]",< 2.5 nM,> 75%
"CC(C)[C@H](C(=O)N1C[C@H](O)C[C@H]1C(=O)N[C@@H](C)c1ccc(-n2ccnc2CO)cc1)c1cc(OCC#Cc2ccc(O[C@H]3C[C@H](Oc4cc(N5C6CCC5CN(c5cc(-c7ccccc7O)nnc5N)C6)ccn4)C3)cn2)no1 [compound 284, (2S,4R)-1-((2S)-2-(3-((3-(5-((1r,3S)-3-((4-(3-(3-amino-6-(2-hydroxyphenyl)pyridazin-4-yl)-3,8-diazabicyclo[3.2.1]octan-8-yl)pyridin-2-yl)oxy)cyclobutoxy)pyridin-2-yl)prop-2-yn-1-yl)oxy)isoxazol-5-yl)-3-methylbutanoyl)-4-hydroxy-N-((S)-1-(4-(2-(hydroxymethyl)-1H-imidazol-1-yl)phenyl)ethyl)pyrrolidine-2-carboxamide]",10 to 30 nM,> 75%
"CC(C)[C@@H](C(=O)N1C[C@H](O)C[C@H]1C(=O)N[C@@H](C)c1ccc(-n2ccnc2CO)cc1)c1cc(OCC#Cc2ccc(O[C@H]3C[C@H](Oc4cc(N5C6CCC5CN(c5cc(-c7ccccc7O)nnc5N)C6)ccn4)C3)cn2)no1 [compound 285, (2S,4R)-1-((2R)-2-(3-((3-(5-((1r,3R)-3-((4-(3-(3-amino-6-(2-hydroxyphenyl)pyridazin-4-yl)-3,8-diazabicyclo[3.2.1]octan-8-yl)pyridin-2-yl)oxy)cyclobutoxy)pyridin-2-yl)prop-2-yn-1-yl)oxy)isoxazol-5-yl)-3-methylbutanoyl)-4-hydroxy-N-((S)-1-(4-(2-(hydroxymethyl)-1H-imidazol-1-yl)phenyl)ethyl)pyrrolidine-2-carboxamide]",< 2.5 nM,> 75%
"Cc1ncsc1-c1ccc([C@H](C)NC(=O)[C@@H]2C[C@@H](O)CN2C(=O)[C@@H](c2cc(OCC(=O)N3CCC(O[C@H]4C[C@H](Oc5cc(N6C7CCC6CN(c6cc(-c8ccccc8O)nnc6N)C7)ccn5)C4)CC3)no2)C(C)C)cn1 [compound 286, (2S,4R)-1-((2R)-2-(3-(2-(4-((1r,3R)-3-((4-(3-(3-amino-6-(2-hydroxyphenyl)pyridazin-4-yl)-3,8-diazabicyclo[3.2.1]octan-8-yl)pyridin-2-yl)oxy)cyclobutoxy)piperidin-1-yl)-2-oxoethoxy)isoxazol-5-yl)-3-methylbutanoyl)-4-hydroxy-N-((S)-1-(6-(4-methylthiazol-5-yl)pyridin-3-yl)ethyl)pyrrolidine-2-carboxamide]",2.5 to 10 nM,> 75%
"Cc1ncsc1-c1ccc([C@H](C)NC(=O)[C@@H]2C[C@@H](O)CN2C(=O)[C@H](c2cc(OCCC3CCN(C[C@H]4C[C@H](Oc5cc(N6C7CCC6CN(c6cc(-c8ccccc8O)nnc6N)C7)ccn5)C4)CC3)no2)C(C)C)cn1 [compound 287, (2S,4R)-1-((2S)-2-(3-(2-(1-(((1r,3S)-3-((4-(3-(3-amino-6-(2-hydroxyphenyl)pyridazin-4-yl)-3,8-diazabicyclo[3.2.1]octan-8-yl)pyridin-2-yl)oxy)cyclobutyl)methyl)piperidin-4-yl)ethoxy)isoxazol-5-yl)-3-methylbutanoyl)-4-hydroxy-N-((S)-1-(6-(4-methylthiazol-5-yl)pyridin-3-yl)ethyl)pyrrolidine-2-carboxamide]",> 30 nM,–
"Cc1ncsc1-c1ccc([C@H](C)NC(=O)[C@@H]2C[C@@H](O)CN2C(=O)[C@@H](c2cc(OCCC3CCN(C[C@H]4C[C@H](Oc5cc(N6C7CCC6CN(c6cc(-c8ccccc8O)nnc6N)C7)ccn5)C4)CC3)no2)C(C)C)cn1 [compound 288, (2S,4R)-1-((2R)-2-(3-(2-(1-(((1r,3R)-3-((4-(3-(3-amino-6-(2-hydroxyphenyl)pyridazin-4-yl)-3,8-diazabicyclo[3.2.1]octan-8-yl)pyridin-2-yl)oxy)cyclobutyl)methyl)piperidin-4-yl)ethoxy)isoxazol-5-yl)-3-methylbutanoyl)-4-hydroxy-N-((S)-1-(6-(4-methylthiazol-5-yl)pyridin-3-yl)ethyl)pyrrolidine-2-carboxamide]",< 2.5 nM,> 75%
